Data reported in ChEMBL document CHEMBL1944566, “Conjugation of cell-penetrating peptides leads to identification of anti-HIV peptides from matrix proteins” (Bioorg Med Chem, 2012).
Where a SMILES comes first, the peptide text is derived from it. The star is where a group is joined. Cam = NC(=O)C*

Experiments:
[1] = Cytotoxicity against human MT4 cells after 5 days by MTT assay; type: cell-based
[2] = test system: Human immunodeficiency virus 1; assay: Antiviral activity against X4 tropic HIV1 NL4-3 in MT4 cells assessed as protection from virus-induced cytopathogenicity after 5 days by MTT assay; type: functional, organism-based; conditions: Human immunodeficiency virus 1, NL4-3, MT4, 120 h
[3] = test system: Human immunodeficiency virus 1; assay: Antiviral activity against R5 tropic HIV1 NL(AD8) in PM1/CCR5 cells assessed as protection from virus-induced cytopathogenicity at 50 uM after 5 days by MTT assay; type: functional; conditions: Human immunodeficiency virus 1, NL(AD8), PM1/CCR5, 120 h
[4] = test system: Human immunodeficiency virus 1; assay: Antiviral activity against R5 tropic HIV1 JR-CSF in PM1/CCR5 cells assessed as protection from virus-induced cytopathogenicity measuring capsid p24 level after 5 days by ELISA; type: functional, cell-based; conditions: Human immunodeficiency virus 1, JRCSF ISOLATE, PM1/CCR5, 120 h
[5] = test system: Human immunodeficiency virus 1; assay: Antiviral activity against R5 tropic HIV1 NL(AD8) in PM1/CCR5 cells assessed as protection from virus-induced cytopathogenicity after 5 days by MTT assay; type: functional, organism-based; conditions: Human immunodeficiency virus 1, NL(AD8), PM1/CCR5, 120 h

Row | SMILES | CC50 at 120 h [1] [µM] | EC50 [2] [µM] | inhibition at 50 µM [3] [%] | EC50 [4] [µM] | EC50 [5] [µM]
1 | CC(=O)N[C@@H](CO)C(=O)N[C@@H](CCCCN)C(=O)N[C@@H](CCCCN)C(=O)N[C@@H](CCCCN)C(=O)N[C@@H](C)C(=O)N[C@@H](CCC(N)=O)C(=O)N[C@@H](CCC(N)=O)C(=O)N[C@@H](C)C(=O)N[C@@H](C)C(=O)N[C@@H](C)C(=O)N[C@@H](CC(=O)O)C(=O)N[C@H](C(=O)NCC(=O)N[C@@H](CC(N)=O)C(=O)N[C@@H](CC(N)=O)C(=O)NCC(=O)N[C@@H](CSCC(N)=O)C(N)=O)[C@@H](C)O | > 50 | > 50 | – | – | –
2 | CC[C@H](C)[C@H](NC(=O)[C@H](CCC(N)=O)NC(=O)[C@H](CCCNC(=N)N)NC(=O)[C@H](CO)NC(=O)CNC(=O)[C@H](CCC(=O)O)NC(=O)[C@H](CO)NC(=O)[C@@H](NC(=O)[C@H](CCC(=O)O)NC(=O)[C@H](CC(C)C)NC(C)=O)[C@@H](C)O)C(=O)N[C@@H](CC(C)C)C(=O)NCC(=O)N[C@@H](CCC(N)=O)C(=O)N[C@@H](CC(C)C)C(=O)N[C@@H](CCC(N)=O)C(=O)NCC(=O)N[C@@H](CSCC(=O)N[C@@H](CCCNC(=N)N)C(=O)N[C@@H](CCCNC(=N)N)C(=O)N[C@@H](CCCNC(=N)N)C(=O)N[C@@H](CCCNC(=N)N)C(=O)N[C@@H](CCCNC(=N)N)C(=O)N[C@@H](CCCNC(=N)N)C(=O)N[C@@H](CCCNC(=N)N)C(=O)N[C@@H](CCCNC(=N)N)C(N)=O)C(N)=O | > 50 | 40 | 49 | 31 | –
3 | CC[C@H](C)[C@H](NC(=O)[C@H](CCCCN)NC(=O)[C@H](CC(=O)O)NC(=O)[C@H](CC(C)C)NC(C)=O)C(=O)N[C@@H](CCC(=O)O)C(=O)N[C@@H](CCC(=O)O)C(=O)N[C@@H](CCC(=O)O)C(=O)N[C@@H](CCC(N)=O)C(=O)N[C@@H](CC(N)=O)C(=O)N[C@@H](CCCCN)C(=O)N[C@@H](CO)C(=O)N[C@@H](CCCCN)C(=O)N[C@@H](CCCCN)C(=O)N[C@@H](CCCCN)C(=O)N[C@@H](C)C(=O)NCC(=O)N[C@@H](CSCC(N)=O)C(N)=O (Ac-LDKIEEEQNKSKKKAGC(Cam)-NH2) | > 50 | > 50 | – | – | –
4 | COC[C@@H](c1ccc(C(F)(F)F)cc1)N1CCN(C2(C)CCN(C(=O)c3c(C)ncnc3C)CC2)C[C@@H]1C [VICRIVIROC] | – | – | – | 0.0014 | 0.026
5 | CC(=O)N[C@@H](CC(=O)O)C(=O)N[C@H](C(=O)NCC(=O)N[C@@H](CC(N)=O)C(=O)N[C@@H](CC(N)=O)C(=O)N[C@@H](CO)C(=O)N[C@@H](CCC(N)=O)C(=O)N[C@H](C(=O)N[C@@H](CO)C(=O)N[C@@H](CCC(N)=O)C(=O)N[C@@H](CC(N)=O)C(=O)N[C@@H](Cc1ccc(O)cc1)C(=O)NCC(=O)N[C@@H](CSCC(=O)N[C@@H](CCCNC(=N)N)C(=O)N[C@@H](CCCNC(=N)N)C(=O)N[C@@H](CCCNC(=N)N)C(=O)N[C@@H](CCCNC(=N)N)C(=O)N[C@@H](CCCNC(=N)N)C(=O)N[C@@H](CCCNC(=N)N)C(=O)N[C@@H](CCCNC(=N)N)C(=O)N[C@@H](CCCNC(=N)N)C(N)=O)C(N)=O)C(C)C)[C@@H](C)O | > 50 | 20 | – | 11 | 0.43
6 | CSCC[C@H](N)C(=O)NCC(=O)N[C@@H](C)C(=O)N[C@@H](CCCNC(=N)N)C(=O)N[C@@H](C)C(=O)N[C@@H](CO)C(=O)N[C@H](C(=O)N[C@@H](CC(C)C)C(=O)N[C@@H](CO)C(=O)NCC(=O)NCC(=O)N[C@@H](CCC(=O)O)C(=O)N[C@@H](CC(C)C)C(=O)N[C@@H](CC(=O)O)C(=O)N[C@@H](CCCCN)C(=O)NCC(=O)N[C@@H](CSCC(N)=O)C(N)=O)C(C)C (H-MGARASVLSGGELDKGC(Cam)-NH2) | > 50 | > 50 | – | – | –
7 | CC[C@H](C)[C@H](NC(=O)[C@H](Cc1cnc[nH]1)NC(=O)[C@H](CCCCN)NC(=O)[C@H](CC(C)C)NC(=O)[C@H](CCCCN)NC(=O)[C@H](Cc1ccc(O)cc1)NC(=O)[C@H](CCC(N)=O)NC(=O)[C@H](CCCCN)NC(=O)[C@H](CCCCN)NC(=O)CNC(=O)CNC(=O)[C@@H]1CCCN1C(=O)[C@H](CCCNC(=N)N)NC(=O)[C@H](CC(C)C)NC(C)=O)C(=O)N[C@H](C(=O)NCC(=O)N[C@@H](CSCC(N)=O)C(N)=O)C(C)C | > 50 | > 50 | – | – | –
8 | CC(=O)N[C@@H](CC(C)C)C(=O)N[C@@H](CCC(=O)O)C(=O)N[C@@H](CCCNC(=N)N)C(=O)N[C@@H](Cc1ccccc1)C(=O)N[C@@H](C)C(=O)N[C@H](C(=O)N[C@@H](CC(N)=O)C(=O)N1CCC[C@H]1C(=O)NCC(=O)N[C@@H](CC(C)C)C(=O)N[C@@H](CC(C)C)C(=O)N[C@@H](CCC(=O)O)C(=O)N[C@H](C(=O)N[C@@H](CO)C(=O)N[C@@H](CCC(=O)O)C(=O)NCC(=O)N[C@@H](CSCC(N)=O)C(N)=O)[C@@H](C)O)C(C)C (Ac-LERFAVNPGLLETSEGC(Cam)-NH2) | > 50 | > 50 | – | – | –
9 | CC(=O)N[C@@H](CC(C)C)C(=O)NCC(=O)N[C@@H](CCC(N)=O)C(=O)N[C@@H](CC(C)C)C(=O)N[C@@H](CCC(N)=O)C(=O)N1CCC[C@H]1C(=O)N[C@@H](CO)C(=O)N[C@@H](CC(C)C)C(=O)N[C@@H](CCC(N)=O)C(=O)N[C@H](C(=O)NCC(=O)N[C@@H](CO)C(=O)N[C@@H](CCC(=O)O)C(=O)N[C@@H](CCC(=O)O)C(=O)N[C@@H](CC(C)C)C(=O)NCC(=O)N[C@@H](CSCC(N)=O)C(N)=O)[C@@H](C)O (Ac-LGQLQPSLQTGSEELGC(Cam)-NH2) | > 50 | > 50 | – | – | –
10 | CC[C@H](C)[C@H](NC(=O)[C@H](CCCCN)NC(=O)[C@H](CCC(=O)O)NC(=O)[C@H](Cc1c[nH]c2ccccc12)NC(=O)[C@H](CCCCN)NC(=O)[C@H](CC(=O)O)NC(=O)[C@H](CC(C)C)NC(=O)[C@H](CCC(=O)O)NC(=O)CNC(C)=O)C(=O)N[C@@H](CCCNC(=N)N)C(=O)N[C@@H](CC(C)C)C(=O)N[C@@H](CCCNC(=N)N)C(=O)N1CCC[C@H]1C(=O)NCC(=O)NCC(=O)NCC(=O)N[C@@H](CSCC(N)=O)C(N)=O | > 50 | 17 | – | – | 1
11 | CC[C@H](C)[C@H](NC(=O)[C@H](CCCCN)NC(=O)[C@H](CCC(=O)O)NC(=O)[C@H](Cc1c[nH]c2ccccc12)NC(=O)[C@H](CCCCN)NC(=O)[C@H](CC(=O)O)NC(=O)[C@H](CC(C)C)NC(=O)[C@H](CCC(=O)O)NC(=O)CNC(C)=O)C(=O)N[C@@H](CCCNC(=N)N)C(=O)N[C@@H](CC(C)C)C(=O)N[C@@H](CCCNC(=N)N)C(=O)N1CCC[C@H]1C(=O)NCC(=O)NCC(=O)NCC(=O)N[C@@H](CSCC(=O)N[C@@H](CCCNC(=N)N)C(=O)N[C@@H](CCCNC(=N)N)C(=O)N[C@@H](CCCNC(=N)N)C(=O)N[C@@H](CCCNC(=N)N)C(=O)N[C@@H](CCCNC(=N)N)C(=O)N[C@@H](CCCNC(=N)N)C(=O)N[C@@H](CCCNC(=N)N)C(=O)N[C@@H](CCCNC(=N)N)C(N)=O)C(N)=O | 32 | 21 | – | – | > 31
12 | CSCC[C@H](N)C(=O)NCC(=O)N[C@@H](C)C(=O)N[C@@H](CCCNC(=N)N)C(=O)N[C@@H](C)C(=O)N[C@@H](CO)C(=O)N[C@H](C(=O)N[C@@H](CC(C)C)C(=O)N[C@@H](CO)C(=O)NCC(=O)NCC(=O)N[C@@H](CCC(=O)O)C(=O)N[C@@H](CC(C)C)C(=O)N[C@@H](CC(=O)O)C(=O)N[C@@H](CCCCN)C(=O)NCC(=O)N[C@@H](CSCC(=O)N[C@@H](CCCNC(=N)N)C(=O)N[C@@H](CCCNC(=N)N)C(=O)N[C@@H](CCCNC(=N)N)C(=O)N[C@@H](CCCNC(=N)N)C(=O)N[C@@H](CCCNC(=N)N)C(=O)N[C@@H](CCCNC(=N)N)C(=O)N[C@@H](CCCNC(=N)N)C(=O)N[C@@H](CCCNC(=N)N)C(N)=O)C(N)=O)C(C)C | > 50 | 30 | – | 40 | 30
13 | CC[C@H](C)[C@H](NC(=O)[C@H](Cc1cnc[nH]1)NC(=O)[C@H](CCCCN)NC(=O)[C@H](CC(C)C)NC(=O)[C@H](CCCCN)NC(=O)[C@H](Cc1ccc(O)cc1)NC(=O)[C@H](CCC(N)=O)NC(=O)[C@H](CCC(=O)O)NC(=O)[C@H](Cc1c[nH]c2ccccc12)NC(=O)[C@H](CCCCN)NC(=O)[C@H](CC(=O)O)NC(=O)[C@H](CC(C)C)NC(=O)[C@H](CCC(=O)O)NC(=O)CNC(C)=O)C(=O)N[C@H](C(=O)NCC(=O)N[C@@H](CSCC(N)=O)C(N)=O)C(C)C (Ac-GELDKWEQYKLKHIVGC(Cam)-NH2) | > 50 | > 50 | – | – | –
14 | CC[C@H](C)[C@H](NC(=O)[C@H](CCCCN)NC(=O)[C@H](CC(=O)O)NC(=O)[C@H](CC(C)C)NC(=O)[C@H](C)NC(=O)[C@H](CCC(=O)O)NC(=O)[C@H](CCCCN)NC(=O)[C@@H](NC(=O)[C@H](CC(=O)O)NC(=O)[C@H](CCCCN)NC(=O)[C@@H](NC(=O)[C@H](CC(=O)O)NC(=O)[C@@H](NC(=O)[C@H](CCCNC(=N)N)NC(C)=O)[C@@H](C)CC)C(C)C)[C@@H](C)O)C(=O)N[C@@H](CCC(=O)O)C(=O)NCC(=O)N[C@@H](CSCC(=O)N[C@@H](CCCNC(=N)N)C(=O)N[C@@H](CCCNC(=N)N)C(=O)N[C@@H](CCCNC(=N)N)C(=O)N[C@@H](CCCNC(=N)N)C(=O)N[C@@H](CCCNC(=N)N)C(=O)N[C@@H](CCCNC(=N)N)C(=O)N[C@@H](CCCNC(=N)N)C(=O)N[C@@H](CCCNC(=N)N)C(N)=O)C(N)=O | > 50 | 43 | 42 | 27 | –
15 | Cc1cn([C@H]2C[C@H](N=[N+]=[N-])[C@@H](CO)O2)c(=O)[nH]c1=O [ZIDOVUDINE] | > 100 | 0.02 | – | 0.17 | 0.459
